Data on 23 molecules can be found in ChEMBL document CHEMBL3046021, “Docking and QSAR studies of new 1,4-dihydropyridines containing 4(5)-chloro-2-methyl-5(4)-imidazolyl substituent” (Med Chem Res, 2012).

pIC50: −log10 of the molar value.

Sequence of Voltage-dependent L-type calcium channel subunit alpha-1C (O35505 whole entry): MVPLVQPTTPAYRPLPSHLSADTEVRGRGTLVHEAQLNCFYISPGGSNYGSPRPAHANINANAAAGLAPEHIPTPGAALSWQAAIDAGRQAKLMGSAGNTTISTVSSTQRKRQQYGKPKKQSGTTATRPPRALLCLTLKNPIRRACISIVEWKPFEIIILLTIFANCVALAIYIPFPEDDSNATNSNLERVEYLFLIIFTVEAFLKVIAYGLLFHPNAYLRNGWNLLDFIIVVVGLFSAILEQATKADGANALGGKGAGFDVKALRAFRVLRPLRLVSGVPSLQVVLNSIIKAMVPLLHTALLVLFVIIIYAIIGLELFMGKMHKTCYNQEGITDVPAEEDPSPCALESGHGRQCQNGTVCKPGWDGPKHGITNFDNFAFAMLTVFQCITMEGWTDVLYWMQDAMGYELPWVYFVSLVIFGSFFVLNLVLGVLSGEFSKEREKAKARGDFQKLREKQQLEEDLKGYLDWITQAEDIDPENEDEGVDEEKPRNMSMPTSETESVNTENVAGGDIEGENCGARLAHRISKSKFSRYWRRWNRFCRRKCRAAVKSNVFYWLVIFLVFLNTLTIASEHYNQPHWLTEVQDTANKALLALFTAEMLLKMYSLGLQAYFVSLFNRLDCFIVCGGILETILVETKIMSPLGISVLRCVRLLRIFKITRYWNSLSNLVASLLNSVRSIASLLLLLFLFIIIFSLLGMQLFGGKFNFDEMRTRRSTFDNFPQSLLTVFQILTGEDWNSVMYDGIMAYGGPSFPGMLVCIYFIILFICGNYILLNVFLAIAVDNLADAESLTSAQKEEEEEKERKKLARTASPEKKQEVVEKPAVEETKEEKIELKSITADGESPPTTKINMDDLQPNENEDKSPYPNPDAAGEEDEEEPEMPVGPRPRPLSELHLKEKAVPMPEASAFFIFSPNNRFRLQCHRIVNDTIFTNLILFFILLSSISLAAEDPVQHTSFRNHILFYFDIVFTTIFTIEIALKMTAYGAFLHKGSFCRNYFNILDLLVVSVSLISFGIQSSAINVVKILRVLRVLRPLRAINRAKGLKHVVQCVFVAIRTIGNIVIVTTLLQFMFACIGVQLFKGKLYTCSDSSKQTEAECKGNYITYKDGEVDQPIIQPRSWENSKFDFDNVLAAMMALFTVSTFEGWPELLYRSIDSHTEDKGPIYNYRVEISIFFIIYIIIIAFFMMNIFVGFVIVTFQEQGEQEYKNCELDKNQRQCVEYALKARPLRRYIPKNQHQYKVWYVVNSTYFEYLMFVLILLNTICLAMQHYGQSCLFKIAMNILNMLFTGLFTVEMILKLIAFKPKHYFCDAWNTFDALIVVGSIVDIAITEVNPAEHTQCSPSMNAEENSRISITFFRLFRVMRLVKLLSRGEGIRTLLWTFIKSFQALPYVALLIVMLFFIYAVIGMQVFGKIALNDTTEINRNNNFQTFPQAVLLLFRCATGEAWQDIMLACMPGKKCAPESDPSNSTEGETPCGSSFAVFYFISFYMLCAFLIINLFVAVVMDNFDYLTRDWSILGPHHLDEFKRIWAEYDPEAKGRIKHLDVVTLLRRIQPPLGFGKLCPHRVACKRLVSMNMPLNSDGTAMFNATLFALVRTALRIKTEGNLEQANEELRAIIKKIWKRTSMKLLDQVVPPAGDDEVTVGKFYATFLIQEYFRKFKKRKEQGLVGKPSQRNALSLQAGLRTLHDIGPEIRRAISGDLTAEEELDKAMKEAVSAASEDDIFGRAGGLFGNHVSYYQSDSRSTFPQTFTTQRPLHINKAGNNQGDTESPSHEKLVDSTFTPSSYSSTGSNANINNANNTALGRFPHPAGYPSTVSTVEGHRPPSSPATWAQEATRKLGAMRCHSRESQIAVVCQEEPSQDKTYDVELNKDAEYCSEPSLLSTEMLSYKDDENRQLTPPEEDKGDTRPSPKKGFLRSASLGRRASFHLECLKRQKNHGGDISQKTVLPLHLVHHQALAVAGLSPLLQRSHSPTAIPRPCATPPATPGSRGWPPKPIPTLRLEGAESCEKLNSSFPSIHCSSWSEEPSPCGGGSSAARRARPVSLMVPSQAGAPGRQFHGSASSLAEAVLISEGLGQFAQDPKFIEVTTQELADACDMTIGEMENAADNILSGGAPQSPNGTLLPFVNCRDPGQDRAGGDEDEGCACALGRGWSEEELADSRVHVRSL

This assay has as its target Voltage-dependent L-type calcium channel subunit alpha-1C (Cavia porcellus, UniProt O35505). As to the kind of experiment: Inhibition of L-type calcium channel in Cavia porcellus (guinea pig) ileal SMC assessed as inhibition of 80 mM KCl-induced current.
By pIC50 is commonly meant −log10 of the IC50, conventionally taken in molar units. As for `COC(=O)C1=C(C)NC(C)=C(C(=O)OCc2ccccc2)C1c1[nH]c(C)nc1Cl` (stereo not drawn), the pIC50 is 7.03.

For the molecule `CCCOC(=O)C1=C(C)NC(C)=C(C(=O)OC)C1c1[nH]c(C)nc1Cl` (stereo not drawn), the pIC50 is 6.36.

As for `CC1=C(C(=O)OC2CCCC2)C(c2[nH]c(C)nc2Cl)C(C(=O)OC2CCCC2)=C(C)N1`, the negative logarithm of the IC50 (pIC50) was 7.01.

On to `CC1=C(C(=O)OCCc2ccccc2)C(c2nc(C)[nH]c2Cl)C(C(=O)OCCc2ccccc2)=C(C)N1`, for which the pIC50 is 9.74.

As to `COC(=O)C1=C(C)NC(C)=C(C(=O)OCC2CCCCC2)C1c1[nH]c(C)nc1Cl` (stereo not drawn), the negative-log IC50 (pIC50) was 6.45.

For the molecule `CC1=C(C(=O)OC2CCCCC2)C(c2[nH]c(C)nc2Cl)C(C(=O)OC2CCCCC2)=C(C)N1`, the pIC50 was 6.02.

For `CCOC(=O)C1=C(C)NC(C)=C(C(=O)OCc2ccccc2)C1c1[nH]c(C)nc1Cl` (stereo not drawn), the pIC50 was 7.04.

Take `CCCOC(=O)C1=C(C)NC(C)=C(C(=O)OCC)C1c1[nH]c(C)nc1Cl` (stereo not drawn): the negative-log IC50 (pIC50) is 6.39.

`CC1=C(C(=O)OCC2CCCCC2)C(c2[nH]c(C)nc2Cl)C(C(=O)OCC2CCCCC2)=C(C)N1`: the pIC50 was 6.20.

On to `COC(=O)C1=C(C)NC(C)=C(C(=O)OCCc2ccccc2)C1c1[nH]c(C)nc1Cl` (stereo not drawn), for which the pIC50 is 7.10.

For `CC1=C(C(=O)OC(C)C)C(c2[nH]c(C)nc2Cl)C(C(=O)OC(C)C)=C(C)N1`, the negative logarithm of the IC50 (pIC50) was 7.42.

`CC1=C(C(=O)OCc2ccccc2)C(c2nc(C)[nH]c2Cl)C(C(=O)OCc2ccccc2)=C(C)N1`: the negative logarithm of the IC50 (pIC50) is 7.38.

Consider `CC1=C(C(=O)OC(C)(C)C)C(c2[nH]c(C)nc2Cl)C(C(=O)OC(C)(C)C)=C(C)N1`, for which the pIC50 was 5.39.

On to `CCOC(=O)C1=C(C)NC(C)=C(C(=O)OCCc2ccccc2)C1c1[nH]c(C)nc1Cl` (stereo not drawn), for which the pIC50 is 7.15.

Turning to `CCOC(=O)C1=C(C)NC(C)=C(C(=O)OC(C)(C)C)C1c1[nH]c(C)nc1Cl` (stereo not drawn), the pIC50 is 5.78.

As to `CCOC(=O)C1=C(C)NC(C)=C(C(=O)OCC)C1c1[nH]c(C)nc1Cl`, the negative logarithm of the IC50 (pIC50) was 6.36.

`COC(=O)C1=C(C)NC(C)=C(C(=O)OC)C1c1[nH]c(C)nc1Cl`: the negative logarithm of the IC50 (pIC50) is 5.92.

With `CCCOC(=O)C1=C(C)NC(C)=C(C(=O)OCCC)C1c1[nH]c(C)nc1Cl`, the negative logarithm of the IC50 (pIC50) was 7.20.

Take `CCOC(=O)C1=C(C)NC(C)=C(C(=O)OCC2CCCCC2)C1c1[nH]c(C)nc1Cl` (stereo not drawn): the pIC50 was 6.29.

Consider `CC1=C(C(=O)OCCCc2ccccc2)C(c2nc(C)[nH]c2Cl)C(C(=O)OCCCc2ccccc2)=C(C)N1`, for which the negative logarithm of the IC50 (pIC50) was 8.76.

Consider `COC(=O)C1=C(C)NC(C)=C(C(=O)OC(C)(C)C)C1c1[nH]c(C)nc1Cl` (stereo not drawn), for which the pIC50 is 5.73.

On to `CC1=C(C(=O)OCC(C)C)C(c2[nH]c(C)nc2Cl)C(C(=O)OCC(C)C)=C(C)N1`, for which the pIC50 was 7.02.

With `CCOC(=O)C1=C(C)NC(C)=C(C(=O)OC)C1c1[nH]c(C)nc1Cl` (stereo not drawn), the negative logarithm of the IC50 (pIC50) is 6.18.
